From US6180596A, “Methods of inhibiting phospholipase A2 and phospholipase A2 stimulator activities” (Wisconsin Alumni Research Foundation, priority 1998, dated 2001)
Entries after “also recorded” stand apart in the source; their conditions may differ.

Test system: elastase
Assay: Degradation of rabbit lung Annexin I to 33 kDa(BP) by elastase, with and without PMSF
Format: biochemical
Conditions: PMSF present in the reaction solution; concentration not given; substrate rabbit lung Annexin I

Compound: O=S(=O)(F)Cc1ccccc1 [PMSF, phenylmethyl sulfonyl fluoride]
- inhibition of the proteolytic hydrolysis of Annexin I catalyzed by elastase: totally inhibited; also recorded: prevented Annexin I degradation
